Values after ≈ are worked out from the molar mass of the structure shown.

Common to all, as to format: functional
Experiment [1] deals with HCT-116. Briefly: In vitro cytotoxicity assay was measured against human tumor HCT116 cell line using camptothecin as a standard. Particulars: read-out: TD50 (the source's name).
For experiment [2], the system named is KB. As to the kind of experiment: In vitro cytotoxicity assay was measured against human tumor KB cell line using camptothecin as a standard. Particulars: read-out: TD50 (the source's name).
The test system of experiment [3] is MCF7. Briefly: In vitro cytotoxicity assay was measured against human tumor MCF-7 cell line using camptothecin as a standard. The settings on record: read-out: TD50 (the source's name).
Experiment [4] deals with L1210. Briefly: In vitro cytotoxicity assay was measured against human tumor L1210 cell line using camptothecin as a standard. The settings on record: Mus musculus, read-out: TD50 (the source's name).
The test system of experiment [5] is L1210/Adr. As to the kind of experiment: In vitro cytotoxicity assay was measured against human tumor L1210/Adr cell line using camptothecin as a standard. The settings on record: Mus musculus, read-out: TD50 (the source's name).
The subject of experiment [6] is MCF7. As to the kind of experiment: In vitro cytotoxicity assay was measured against human tumor MCF-7 cell line. The settings on record: read-out: TD50 (the source's name).
The subject of experiment [7] is HCT-116. Briefly: In vitro cytotoxicity assay was measured against human tumor HCT116 cell line. The settings on record: read-out: TD50 (the source's name).
In experiment [8] the test system is KB. Briefly: In vitro cytotoxicity assay was measured against human tumor KB cell line. Particulars: read-out: TD50 (the source's name).
Experiment [9] concerns L1210/Adr. As to the kind of experiment: In vitro cytotoxicity assay was measured against human tumor L1210/Adr cell line. The settings on record: Mus musculus, read-out: TD50 (the source's name).
In experiment [10] the test system is L1210. Briefly: In vitro cytotoxicity assay was measured against human tumor L1210 cell line. The settings on record: Mus musculus, read-out: TD50 (the source's name).

As to `CCC1(O)C(=O)OCc2c1cc1n(c2=O)Cc2cc3cc(OCCNC(=O)S(=O)(=O)c4cccs4)ccc3nc2-1` (stereo not given), the CC50 in the experiment with HCT-116 [1] is 0.01 ng/mL (≈ 0.0172 nM); in the experiment on KB [2], 0.5 ng/mL (≈ 0.86 nM); with MCF7 [3] it was 100 ng/mL (≈ 172 nM); with L1210 [4] it was 0.085 ng/mL (≈ 0.146 nM); with L1210/Adr [5], 0.1 ng/mL (≈ 0.172 nM).

For `CCC1(O)C(=O)OCc2c1cc1n(c2=O)Cc2cc3cc(OCCNC(=O)c4ccc[nH]4)ccc3nc2-1` (stereo not given), the CC50 came out at 0.01 ng/mL (≈ 0.02 nM) in the experiment on HCT-116 [1]; 0.4 ng/mL (≈ 0.799 nM) in the experiment with KB [2]; 260 ng/mL (≈ 519 nM) in the experiment with MCF7 [3]; 0.1 ng/mL (≈ 0.2 nM) with L1210 [4]; 1 ng/mL (≈ 2 nM) in the experiment on L1210/Adr [5].

Turning to `CCC1(O)C(=O)OCc2c1cc1n(c2=O)Cc2cc3cc(OCCNC(=O)C4CCCO4)ccc3nc2-1` (stereo not given), the CC50 in the experiment on HCT-116 [1] came to 55 ng/mL (≈ 109 nM); in the experiment with KB [2] it was 69 ng/mL (≈ 136 nM); in the experiment on MCF7 [3] it was 900 ng/mL (≈ 1780 nM); with L1210 [4], 50 ng/mL (≈ 98.9 nM); with L1210/Adr [5], 320 ng/mL (≈ 633 nM).

For `CCC1(O)C(=O)OCc2c1cc1n(c2=O)Cc2cc3cc(OCCNC(=O)c4cccs4)ccc3nc2-1` (stereo not given), the CC50 in the experiment on HCT-116 [1] is 0.04 ng/mL (≈ 0.0773 nM); with KB [2] it was 0.5 ng/mL (≈ 0.966 nM); in the experiment with MCF7 [3], 68 ng/mL (≈ 131 nM); in the experiment with L1210 [4], 0.1 ng/mL (≈ 0.193 nM); with L1210/Adr [5] it was 1.5 ng/mL (≈ 2.9 nM).

Consider `CCC1(O)C(=O)OCc2c1cc1n(c2=O)Cc2cc3cc(OCCNC(=O)c4cccn4COC)ccc3nc2-1` (stereo not given), for which the CC50 was 0.7 ng/mL (≈ 1.29 nM) in the experiment with HCT-116 [1]; 5 ng/mL (≈ 9.18 nM) in the experiment with KB [2]; 120 ng/mL (≈ 220 nM) in the experiment on MCF7 [3]; 1 ng/mL (≈ 1.84 nM) with L1210 [4]; 15 ng/mL (≈ 27.5 nM) with L1210/Adr [5].

For the compound `CCC1(O)C(=O)OCc2c1cc1n(c2=O)Cc2cc3cc(OCCNC(=O)c4nccn4COC)ccc3nc2-1` (stereo not given), the CC50 in the experiment on HCT-116 [1] was 3 ng/mL (≈ 5.5 nM); in the experiment with KB [2] it was 7 ng/mL (≈ 12.8 nM); in the experiment with MCF7 [3], 750 ng/mL (≈ 1370 nM); in the experiment with L1210 [4], 2 ng/mL (≈ 3.67 nM); in the experiment on L1210/Adr [5], 10 ng/mL (≈ 18.3 nM).

As for `CCC1(O)C(=O)OCc2c1cc1n(c2=O)Cc2cc3cc(OCCNC(=O)c4cccn4C)ccc3nc2-1` (stereo not given), the CC50 in the experiment on HCT-116 [1] was found to be 0.01 ng/mL (≈ 0.0194 nM); in the experiment on KB [2], 0.5 ng/mL (≈ 0.972 nM); in the experiment with MCF7 [3], 140 ng/mL (≈ 272 nM); in the experiment on L1210 [4], 0.2 ng/mL (≈ 0.389 nM); with L1210/Adr [5] it was 0.95 ng/mL (≈ 1.85 nM).

For the compound `CCC1(O)C(=O)OCc2c1cc1n(c2=O)Cc2cc3cc(OCCNC(=O)c4ccco4)ccc3nc2-1` (stereo not given), the CC50 in the experiment on HCT-116 [1] stood at 1 ng/mL (≈ 1.99 nM); with KB [2] it was 5 ng/mL (≈ 9.97 nM); in the experiment with MCF7 [3], 820 ng/mL (≈ 1640 nM); in the experiment on L1210 [4] it was 4 ng/mL (≈ 7.98 nM); with L1210/Adr [5] it was 15 ng/mL (≈ 29.9 nM).

`CCC1(O)C(=O)OCc2c1cc1n(c2=O)Cc2cc3cc(OCCNC(=O)/C=C/c4ccco4)ccc3nc2-1` (stereo not given): the CC50 was 65 ng/mL (≈ 123 nM) in the experiment with HCT-116 [1]; 83 ng/mL (≈ 157 nM) in the experiment on KB [2]; 1000 ng/mL (≈ 1900 nM) in the experiment with MCF7 [3]; 50 ng/mL (≈ 94.8 nM) in the experiment with L1210 [4]; 140 ng/mL (≈ 265 nM) with L1210/Adr [5].

For the compound `CC[C@@]1(O)C(=O)OCc2c1cc1n(c2=O)Cc2cc3ccccc3nc2-1` [CAMPTOTHECIN], the CC50 in the experiment with MCF7 [6] stood at 10 ng/mL (≈ 28.7 nM); in the experiment with HCT-116 [7], 6 ng/mL (≈ 17.2 nM); with KB [8] it was 8 ng/mL (≈ 23 nM); with L1210/Adr [9] it was 45 ng/mL (≈ 129 nM); with L1210 [10], 10 ng/mL (≈ 28.7 nM).

With `COc1cccc2c1C(=O)c1c(O)c3c(c(O)c1C2=O)C[C@@](O)(C(=O)CO)C[C@@H]3O[C@H]1C[C@H](N)[C@H](O)[C@H](C)O1` [DOXORUBICIN], the CC50 was found to be 30 ng/mL (≈ 55.2 nM) in the experiment with HCT-116 [1]; 15 ng/mL (≈ 27.6 nM) in the experiment with KB [2]; 150 ng/mL (≈ 276 nM) in the experiment with MCF7 [3]; 6 ng/mL (≈ 11 nM) in the experiment on L1210 [4]; 400 ng/mL (≈ 736 nM) in the experiment with L1210/Adr [5].

These data come from ChEMBL document CHEMBL1128108, “Synthesis and antitumor activity of camptothecin derivatives bearing five-membered heterocycle containing 10-substituents” (1995).
